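In this assay, cells in 96-well plates receive the compound at five concentrations for 48 hours. Endpoints are linearly interpolated between the surrounding concentrations. The concentration for 50% growth inhibition is given as GI50. TGI: total growth inhibition.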
Tests used:
Assay in all cases: NCI tumour cell line growth inhibition, 48 h
NCI-H23 lung = tested on: NCI-H23 lung
NCI-H460 lung = tested on: NCI-H460 lung
NCI-H522 lung = tested on: NCI-H522 lung
NCI/ADR-RES ovarian = tested on: NCI/ADR-RES ovarian
OVCAR-3 ovarian = tested on: OVCAR-3 ovarian
OVCAR-4 ovarian = tested on: OVCAR-4 ovarian
OVCAR-5 ovarian = tested on: OVCAR-5 ovarian
OVCAR-8 ovarian = tested on: OVCAR-8 ovarian
PC-3 prostate = tested on: PC-3 prostate
RPMI-8226 leukemia = tested on: RPMI-8226 leukemia
RXF 393 renal = tested on: RXF 393 renal
SF-268 CNS = tested on: SF-268 CNS
SF-295 CNS = tested on: SF-295 CNS
SF-539 CNS = tested on: SF-539 CNS
SK-MEL-2 melanoma = tested on: SK-MEL-2 melanoma
SK-MEL-28 melanoma = tested on: SK-MEL-28 melanoma
SK-MEL-5 melanoma = tested on: SK-MEL-5 melanoma
SK-OV-3 ovarian = tested on: SK-OV-3 ovarian
SN12C renal = tested on: SN12C renal
SNB-19 CNS = tested on: SNB-19 CNS
SNB-75 CNS = tested on: SNB-75 CNS
SW-620 colon = tested on: SW-620 colon
T-47D breast = tested on: T-47D breast
TK-10 renal = tested on: TK-10 renal
U251 CNS = tested on: U251 CNS
UACC-257 melanoma = tested on: UACC-257 melanoma
UACC-62 melanoma = tested on: UACC-62 melanoma
UO-31 renal = tested on: UO-31 renal

Q: How did the GI50 (NCI-H23 lung) turn out when `S=C(Nc1ccccc1)N1CCn2c1nsc2=Nc1ccccc1` was run?
A: Its GI50 is 41.1 µM.

Q: And the TGI (NCI-H23 lung)?
A: The TGI was > 100 µM.

Q: What about the GI50 (NCI-H460 lung) of the same molecule?
A: Its GI50 is > 100 µM.

Q: What about the TGI (NCI-H460 lung) of the same molecule?
A: Its TGI is > 100 µM.

Q: And the GI50 (NCI-H522 lung)?
A: The GI50 was 46.2 µM.

Q: And the TGI (NCI-H522 lung)?
A: The TGI was > 100 µM.

Q: What about the GI50 (NCI/ADR-RES ovarian) of the same molecule?
A: The GI50 was > 100 µM.

Q: And the TGI (NCI/ADR-RES ovarian)?
A: The TGI was > 100 µM.

Q: And the GI50 (OVCAR-3 ovarian)?
A: Its GI50 is 90 µM.

Q: And the TGI (OVCAR-3 ovarian)?
A: The TGI was > 100 µM.

Q: What about the GI50 (OVCAR-4 ovarian) of the same molecule?
A: Its GI50 is > 100 µM.

Q: What about the TGI (OVCAR-4 ovarian) of the same molecule?
A: Its TGI is > 100 µM.

Q: And the GI50 (OVCAR-5 ovarian)?
A: The GI50 was > 100 µM.

Q: And the TGI (OVCAR-5 ovarian)?
A: Its TGI is > 100 µM.

Q: What about the GI50 (OVCAR-8 ovarian) of the same molecule?
A: Its GI50 is > 100 µM.

Q: And the TGI (OVCAR-8 ovarian)?
A: The TGI was > 100 µM.

Q: And the GI50 (PC-3 prostate)?
A: Its GI50 is 53.3 µM.

Q: What about the TGI (PC-3 prostate) of the same molecule?
A: Its TGI is > 100 µM.

Q: What about the GI50 (RPMI-8226 leukemia) of the same molecule?
A: Its GI50 is 40.9 µM.

Q: What about the TGI (RPMI-8226 leukemia) of the same molecule?
A: Its TGI is > 100 µM.

Q: What about the GI50 (RXF 393 renal) of the same molecule?
A: Its GI50 is > 100 µM.

Q: What about the TGI (RXF 393 renal) of the same molecule?
A: The TGI was > 100 µM.

Q: What about the GI50 (SF-268 CNS) of the same molecule?
A: Its GI50 is > 100 µM.

Q: And the TGI (SF-268 CNS)?
A: The TGI was > 100 µM.

Q: And the GI50 (SF-295 CNS)?
A: Its GI50 is 40.4 µM.

Q: And the TGI (SF-295 CNS)?
A: Its TGI is > 100 µM.

Q: What about the GI50 (SF-539 CNS) of the same molecule?
A: Its GI50 is > 100 µM.

Q: And the TGI (SF-539 CNS)?
A: Its TGI is > 100 µM.

Q: And the GI50 (SK-MEL-2 melanoma)?
A: Its GI50 is > 100 µM.

Q: What about the TGI (SK-MEL-2 melanoma) of the same molecule?
A: The TGI was > 100 µM.

Q: What about the GI50 (SK-MEL-28 melanoma) of the same molecule?
A: Its GI50 is > 100 µM.

Q: And the TGI (SK-MEL-28 melanoma)?
A: Its TGI is > 100 µM.

Q: And the GI50 (SK-MEL-5 melanoma)?
A: Its GI50 is 37.8 µM.

Q: And the TGI (SK-MEL-5 melanoma)?
A: Its TGI is > 100 µM.

Q: And the GI50 (SK-OV-3 ovarian)?
A: The GI50 was > 100 µM.

Q: What about the TGI (SK-OV-3 ovarian) of the same molecule?
A: Its TGI is > 100 µM.

Q: What about the GI50 (SN12C renal) of the same molecule?
A: The GI50 was > 100 µM.

Q: What about the TGI (SN12C renal) of the same molecule?
A: The TGI was > 100 µM.

Q: What about the GI50 (SNB-19 CNS) of the same molecule?
A: The GI50 was > 100 µM.

Q: What about the TGI (SNB-19 CNS) of the same molecule?
A: The TGI was > 100 µM.

Q: What about the GI50 (SNB-75 CNS) of the same molecule?
A: Its GI50 is 66.5 µM.

Q: What about the TGI (SNB-75 CNS) of the same molecule?
A: The TGI was > 100 µM.

Q: What about the GI50 (SW-620 colon) of the same molecule?
A: Its GI50 is 48.4 µM.

Q: And the TGI (SW-620 colon)?
A: Its TGI is > 100 µM.

Q: What about the GI50 (T-47D breast) of the same molecule?
A: Its GI50 is > 100 µM.

Q: And the TGI (T-47D breast)?
A: The TGI was > 100 µM.

Q: And the GI50 (TK-10 renal)?
A: Its GI50 is 26.6 µM.

Q: And the TGI (TK-10 renal)?
A: Its TGI is 95 µM.

Q: What about the GI50 (U251 CNS) of the same molecule?
A: Its GI50 is 33 µM.

Q: What about the TGI (U251 CNS) of the same molecule?
A: Its TGI is > 100 µM.

Q: And the GI50 (UACC-257 melanoma)?
A: The GI50 was > 100 µM.

Q: And the TGI (UACC-257 melanoma)?
A: The TGI was > 100 µM.

Q: What about the GI50 (UACC-62 melanoma) of the same molecule?
A: Its GI50 is 45.9 µM.

Q: What about the TGI (UACC-62 melanoma) of the same molecule?
A: The TGI was > 100 µM.

Q: What about the GI50 (UO-31 renal) of the same molecule?
A: Its GI50 is > 100 µM.

Q: And the TGI (UO-31 renal)?
A: Its TGI is > 100 µM.

— PubChem BioAssay (NCI)
